From PubChem BioAssay (NCI) come the findings set out here.

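All cell lines were grown in 96-well plates and treated with compound for 48 hours. Definition used: TGI = concentration required for complete inhibition of growth.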

What all share (experiment): NCI-60 cell line screen, 48 h
Test [1] deals with DLD-1 colon.
Test [2] deals with DMS 273 small cell lung.
In test [3] the test system is HOP-18 NSCLC.
In test [4] the test system is KM20L2 colon.
The subject of test [5] is LOX IMVI melanoma.
Test [6] concerns LXFL 529 NSCLC.
The subject of test [7] is M19-MEL melanoma.
The subject of test [8] is RXF-631 renal.
Test [9] has as its system SNB-78 CNS.
The test system of test [10] is U251 CNS.
The subject of test [11] is XF 498 CNS.
Test [12] concerns DMS 114 small cell lung.

Consider `CC(=O)c1ccccc1NC(=O)C(=O)C(C(=O)c1ccccc1-c1ccccc1)C1OC(=O)c2ccccc21` (stereo unspecified), for which the TGI in test [1] is 48 µM; in [2] it was over 100 µM; in [3] it was 36.1 µM; in test [4] it was 53 µM; in [5], 37.7 µM; in test [6] it was 31.3 µM. Moreover, the TGI was 48.2 µM in test [7]; over 100 µM in [8]; over 100 µM in test [9]; 30.3 µM in [10]; 24.3 µM in test [11].

For the compound `CC1=NN2C(c3ccc([N+](=O)[O-])cc3)=CSC2=NC(C)(C)C1`, the TGI in test [1], in test [12], in test [2], in test [3], in [4] and in test [5] was over 100 µM in each case. The TGI in test [6], in [7], in test [8], in [9], in [10] and in [11] was over 100 µM throughout.

`C[C@]12CC[C@H](O)CC1=CC[C@@H]1C2CC[C@]2(C)C(=O)NC(=O)CC12` (stereo partly specified): the TGI in test [1], in test [12], in [2], in test [3], in test [4] and in [5] was over 100 µM each time. The TGI in [6], in [7], in [8], in [9], in test [10] and in test [11] was over 100 µM each time.

`COc1cc([C@@H]2c3cc4c(cc3[C@@H](OC(=O)c3cccc(N)c3)C3COC(=O)[C@@H]32)OCO4)cc(OC)c1O` (stereo partly specified): the TGI is over 100 µM in [1]; over 100 µM in test [2]; 26.8 µM in test [4]; 33.8 µM in [5]; 51 µM in test [6]; over 100 µM in test [7]. The results for the TGI in test [9], in test [10] and in [11] were over 100 µM, 22.9 µM and 35 µM, respectively.

Take `CCN(CC)C(=S)SCC(=O)Nc1nc2c(s1)CCCC2`: the TGI in test [1], in [12], in [2], in [4], in [5] and in test [6] was over 100 µM throughout. For the same compound, the TGI in test [7], in test [9], in [10] and in [11] was over 100 µM each time.

As to `C=CCCCN1CCCC(C)C1=S` (stereo unspecified), the TGI in test [1], in test [12], in test [2], in test [3], in [4] and in test [5] was over 100 µM throughout. Moreover, the TGI in test [7], in [8], in test [10] and in [11] was over 100 µM throughout.

As for `Cn1c(=O)cc2[nH]c3ccccc3n2c1=O`, the TGI in [1] was over 100 µM; in [12], over 100 µM; in test [2] it was 45.3 µM; in test [3], over 100 µM; in [4], over 100 µM; in test [5] it was 38.4 µM. Also, the TGI in test [6] is over 100 µM; in test [7] it was over 100 µM; in test [8], 86.5 µM; in test [9] it was over 100 µM; in test [10] it was 31.2 µM.

Consider `Cn1c2ccccc2c2ccc3c(c21)C(=O)C(c1ccccc1)=CC3=O`, for which the TGI in test [1] worked out at 64.6 µM; in test [12], 43.2 µM; in [2], 84 µM; in test [3] it was 5.51 µM; in test [6], 33.5 µM; in test [7] it was 59.9 µM. Further, the TGI in test [9] and in test [10] was over 100 µM in each case.

For `CC(C)(C)[C@H]1CO[C@]2(c3ccccc3)[C@@H]3C[C@@H]3C(=O)N12`, the TGI in [1], in test [12], in test [2], in [4], in test [5] and in test [6] was over 100 µM each time. Besides, the TGI in test [7], in test [10] and in test [11] was over 100 µM in each case.

Turning to `COC(=O)CC(C(C(=O)OC)C(=O)OC)N1C(=O)OC(c2ccccc2)C1c1ccccc1` (stereo unspecified), the TGI in [1], in [12], in test [2], in test [3], in test [4] and in test [5] was over 100 µM each time. For the same compound, the TGI in test [6], in test [7] and in [10] was over 100 µM each time.

On to `CC1(C)c2ccccc2N2O[C@@H]3C(=O)N(c4ccccc4)C(=O)[C@@H]3C21c1ccccc1` (stereo partly specified), for which the TGI in test [1], in test [12], in test [2], in test [5], in test [6] and in test [7] was over 100 µM each time. The TGI in [9] and in [11] was over 100 µM in each case.

`CC1(C)Cc2c(oc3ncnc(N)c23)CS1`: the TGI in test [1], in test [12], in [2], in test [4], in [5] and in test [6] was over 100 µM in each case. In addition, the TGI in test [7], in test [8], in [9], in [10] and in test [11] was over 100 µM throughout.

As to `Nc1nc(N)c2ncn(CCOC(c3ccccc3)P(=O)(O)O)c2n1` (stereo unspecified), the TGI in test [1], in test [12], in [2], in test [4], in test [5] and in test [7] was over 100 µM in each case. Besides, the TGI in test [9], in test [10] and in test [11] was over 100 µM each time.

Take `ClCC[N-]CC[N-]CCCl.ClCC[N-]CC[N-]CCCl.[O-][Cl+3]([O-])([O-])O.[Zn+2]`: the TGI in test [1] is 35 µM; in test [12], over 55.8 µM; in test [2], over 60.2 µM; in [3] it was 56.5 µM; in test [4] it was over 100 µM; in test [5], 57.2 µM. The TGI in [6] is 35.9 µM; in [7] it was over 57.1 µM; in [9], over 76.6 µM; in test [10], over 67.3 µM.

Regarding `Cc1c2ccncc2c(C)c2c1[nH]c1ccc(Oc3ccccc3)cc12`, the TGI in test [12] was found to be 3.35 µM; in test [2], 3.07 µM; in [3] it was 30.4 µM; in test [4], 3.36 µM; in test [5] it was 4 µM; in test [6] it was 4.28 µM. The TGI in test [9] was 6.68 µM; in test [10], 3.37 µM; in test [11], 3.61 µM.

For the compound `CC(C)OC/N=C(/N)NC#N`, the TGI is over 100 µM in test [1]; over 100 µM in test [12]; over 100 µM in test [2]; over 100 µM in test [3]; over 100 µM in test [4]; 43.7 µM in test [5]. Also, the TGI in test [6], in test [7], in test [8], in test [9], in [10] and in [11] was over 100 µM in each case.

On to `COc1cc2c(oc(=O)c3cc4cc([Si](C)(C)C)oc4c(OC)c32)c2cccc(O)c12`, for which the TGI in test [1], in [12], in test [2], in test [3], in test [4] and in test [5] was over 100 µM throughout. Also, the TGI in test [6], in test [7], in test [9], in test [10] and in [11] was over 100 µM each time.
